These results are taken from PubChem BioAssay (NCI).

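Values below derive from 48-hour exposures of cells grown in 96-well plates, with endpoints linearly interpolated between the two concentrations bracketing the appropriate inhibition level. The concentration for 50% growth inhibition is given as GI50. TGI: concentration producing complete growth inhibition.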 Some results are limits rather than exact numbers.

Test systems include SF-268 CNS; MCF7 breast; NCI-H460 lung; RPMI-8226 leukemia; SNB-75 CNS; K-562 leukemia; SK-MEL-28 melanoma; KM12 colon; TK-10 renal; HOP-62 NSCLC.
Holding throughout (assay): NCI-60 cell line screen, 48 h

Turning to `CS(=O)(=O)Nc1cc(-c2ccc3ncnc(Nc4cccc(Cl)c4F)c3c2)cnc1Cl`, the GI50 in the assay with SF-268 CNS is 1.41 µM; in the assay on MCF7 breast, 0.624 µM; in the assay with NCI-H460 lung, 4.09 µM; in the assay with RPMI-8226 leukemia, 2.21 µM; in the assay with SNB-75 CNS, 0.463 µM; in the assay with K-562 leukemia, 4.2 µM. The GI50 in the assay on SK-MEL-28 melanoma was 1.59 µM; in the assay with KM12 colon it was 4.32 µM; in the assay on TK-10 renal it was 1.77 µM; in the assay on HOP-62 NSCLC, 2.48 µM. In addition, the TGI in the assay on SF-268 CNS is 19.3 µM; in the assay with MCF7 breast, 20.1 µM; in the assay with NCI-H460 lung it was > 100 µM; in the assay with RPMI-8226 leukemia, 6.11 µM; in the assay on SNB-75 CNS, 7.43 µM; in the assay with K-562 leukemia it was > 100 µM. Besides, the TGI came out at 9.27 µM in the assay with SK-MEL-28 melanoma, 16.5 µM in the assay with KM12 colon, 8.73 µM in the assay on TK-10 renal and 60.7 µM in the assay on HOP-62 NSCLC.
With `FC(F)(F)c1cc(NC2=NCCN=C(Nc3cc(C(F)(F)F)cc(C(F)(F)F)c3)SS2)cc(C(F)(F)F)c1`, the GI50 in the assay on SF-268 CNS was 5.68 µM; in the assay with MCF7 breast, 2.9 µM; with NCI-H460 lung, 3.7 µM; in the assay with RPMI-8226 leukemia it was 2.58 µM; with SNB-75 CNS, 9.35 µM; in the assay on K-562 leukemia it was 3.58 µM. Moreover, the GI50 is 6.07 µM in the assay on SK-MEL-28 melanoma, 3.72 µM with KM12 colon, 5.25 µM with TK-10 renal and 13.1 µM in the assay with HOP-62 NSCLC. Moreover, the TGI with SF-268 CNS turned out to be 19.8 µM; in the assay with MCF7 breast, 12.6 µM; in the assay on NCI-H460 lung, 14.2 µM; in the assay on RPMI-8226 leukemia it was 8.8 µM; in the assay with SNB-75 CNS, 45.6 µM; in the assay with K-562 leukemia, 17.6 µM. For the same compound, the TGI in the assay with SK-MEL-28 melanoma came out at 19.4 µM; in the assay on KM12 colon it was 12.3 µM; in the assay with TK-10 renal, 19.8 µM; in the assay on HOP-62 NSCLC, 31.3 µM.
For `CN(C)CCNc1c2c(c(NCCN(C)C)c3c(CO)c[nH]c13)C(=O)c1ccccc1C2=O`, the GI50 was 4.27 µM in the assay with SF-268 CNS; 1.97 µM in the assay with MCF7 breast; 1.92 µM with NCI-H460 lung; 2.17 µM in the assay with RPMI-8226 leukemia; 6.38 µM with SNB-75 CNS; 3.47 µM in the assay on K-562 leukemia. Besides, the GI50 was 5.01 µM in the assay on SK-MEL-28 melanoma, 1.03 µM in the assay with KM12 colon, 2.53 µM in the assay on TK-10 renal and 1.02 µM in the assay with HOP-62 NSCLC. In addition, the TGI was 22.1 µM in the assay on SF-268 CNS; > 34.1 µM in the assay with MCF7 breast; 9.12 µM with NCI-H460 lung; 12.8 µM with RPMI-8226 leukemia; 22.6 µM with SNB-75 CNS; > 100 µM with K-562 leukemia. Besides, the TGI with SK-MEL-28 melanoma turned out to be 10.6 µM; in the assay with KM12 colon, 5.73 µM; in the assay with TK-10 renal it was 7.55 µM; with HOP-62 NSCLC, 7.29 µM.
With `CN1N=Nc2c(C(F)(F)F)nn(-c3ccccc3)c2N(C)C1=O`, the GI50 was > 100 µM in the assay with SF-268 CNS; > 100 µM in the assay on MCF7 breast; > 100 µM with NCI-H460 lung; > 56 µM in the assay on RPMI-8226 leukemia; > 100 µM with SNB-75 CNS; > 56.4 µM with K-562 leukemia. Also, the GI50 with SK-MEL-28 melanoma, with KM12 colon, with TK-10 renal and with HOP-62 NSCLC was > 100 µM throughout. Also, the TGI in the assay on SF-268 CNS, in the assay on MCF7 breast, in the assay with NCI-H460 lung, with RPMI-8226 leukemia, in the assay on SNB-75 CNS and in the assay with K-562 leukemia was > 100 µM each time. Moreover, the TGI in the assay with SK-MEL-28 melanoma, in the assay with KM12 colon, with TK-10 renal and in the assay on HOP-62 NSCLC was > 100 µM throughout.
For the compound `N#C/C(=C\c1cccnc1)c1nc2ccccc2o1`, the GI50 with SF-268 CNS, in the assay with MCF7 breast, in the assay on NCI-H460 lung, with RPMI-8226 leukemia, in the assay with SNB-75 CNS and in the assay with K-562 leukemia was > 100 µM in each case. For the same compound, the GI50 with SK-MEL-28 melanoma, with KM12 colon, in the assay on TK-10 renal and in the assay with HOP-62 NSCLC was > 100 µM in each case. Moreover, the TGI in the assay on SF-268 CNS, in the assay with MCF7 breast, with NCI-H460 lung, with RPMI-8226 leukemia, in the assay on SNB-75 CNS and with K-562 leukemia was > 100 µM throughout. Moreover, the TGI in the assay on SK-MEL-28 melanoma, in the assay on KM12 colon, in the assay on TK-10 renal and in the assay on HOP-62 NSCLC was > 100 µM throughout.
As for `COc1cc(N=Nc2cccc(S(N)(=O)=O)c2)c2ccccc2c1N`, the TGI in the assay with SF-268 CNS stood at 31.9 µM; with MCF7 breast, 20.5 µM; in the assay with NCI-H460 lung it was 25.7 µM; in the assay with RPMI-8226 leukemia, 57.3 µM; in the assay with SNB-75 CNS it was 4.56 µM; in the assay with K-562 leukemia, 37.7 µM. Besides, the TGI in the assay with SK-MEL-28 melanoma amounted to 19.9 µM; in the assay with KM12 colon, 26.4 µM; with TK-10 renal it was 30.1 µM; in the assay with HOP-62 NSCLC, 21.8 µM.
Turning to `CCCNc1cccc(-n2ncc3c(N/N=C/c4ccncc4)ncnc32)c1`, the GI50 in the assay with SF-268 CNS was 8.24 µM; in the assay with MCF7 breast it was > 5.61 µM; in the assay with NCI-H460 lung, 2.65 µM; with RPMI-8226 leukemia it was > 25 µM; with SNB-75 CNS it was 0.934 µM; in the assay on K-562 leukemia it was 1.12 µM. Moreover, the GI50 in the assay on SK-MEL-28 melanoma is > 10 µM; with KM12 colon, 1.77 µM; with TK-10 renal, 2.37 µM; in the assay with HOP-62 NSCLC it was 4.72 µM. The TGI in the assay on SF-268 CNS is > 25 µM; in the assay with MCF7 breast, > 25 µM; in the assay with NCI-H460 lung, > 25 µM; in the assay with RPMI-8226 leukemia, > 25 µM; in the assay with SNB-75 CNS, > 19.4 µM; with K-562 leukemia, > 25 µM. In addition, the TGI in the assay with SK-MEL-28 melanoma, with KM12 colon, in the assay on TK-10 renal and in the assay with HOP-62 NSCLC was > 25 µM in each case.
Regarding `O=C(Nc1ccc(-c2ccnc(Nc3ccc(N4CCOCC4)cc3)n2)cc1)C1CCCN1` (stereo not given), the GI50 in the assay with SF-268 CNS was 4.9 µM; in the assay on MCF7 breast, 4.51 µM; with NCI-H460 lung, 1.6 µM; with RPMI-8226 leukemia it was 4.61 µM; with SNB-75 CNS, 1.96 µM; in the assay with K-562 leukemia, 2 µM. Also, the GI50 in the assay with SK-MEL-28 melanoma is 8.95 µM; with KM12 colon, 7.49 µM; in the assay with TK-10 renal it was 9.35 µM; in the assay with HOP-62 NSCLC, 5.16 µM. Besides, the TGI is 44.8 µM in the assay with SF-268 CNS; 21.4 µM in the assay on MCF7 breast; 16.4 µM in the assay with NCI-H460 lung; 24.7 µM with RPMI-8226 leukemia; 12.5 µM in the assay on SNB-75 CNS; > 53.3 µM with K-562 leukemia. Moreover, the TGI in the assay on SK-MEL-28 melanoma stood at 22.3 µM; in the assay on KM12 colon, 27.3 µM; in the assay on TK-10 renal, 33.6 µM; in the assay with HOP-62 NSCLC, 27.7 µM.
